17 compounds from patent publication US11524960B2, “Heterobicyclic inhibitors of MAT2A and methods of use for treating cancer” (AGIOS PHARMACEUTICALS, INC., priority 2018, dated 2022) can be followed below.

One test addresses T1, MAT2A homodimer (Homo sapiens, UniProt P31153).
T1 construct: inferred from Ni sepharose purification and imidazole elution; made in house; host or cells: Sf9 insect cells, recombinant baculovirus (Bac to Bac, pFASTBAC1)
The test can be described thus: Biochemical assay: inhibition of MAT2A (phosphate release, PiColorLock Gold). The settings on record: MAT2A IC50 score; read-out: Enzyme Inhibition (Example 275). A digest of the protocol: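 Baculovirus/Sf9-expressed, Ni-purified MAT2A at 4 µg/mL was preincubated with compound for 60 min at 25 °C in 50 mM Tris pH 8.0, 50 mM KCl, 15 mM MgCl2, 0.3 mM EDTA, 0.005% BSA. Substrate mix (500 μM ATP, 400 μM L-methionine) was added and the reaction ran 60 min at 25 °C. Phosphate released stoichiometrically with SAM was measured colorimetrically against a phosphate standard curve.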

Another test has as its system HCT116 MTAP−/−. Nature of the test: Inhibition of cellular proliferation (Cell Titer Glo), HCT116 MTAP−/−. It is filed as cell-based, human. Particulars: Homo sapiens, HCT-116, 96 h, 4 days, IC50 score, read-out: 4 Day Relative Growth Inhibition (MTAP −/−; Example 277). A digest of the protocol: (§1)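 Isogenic HCT116 lines, MTAP+/+ and MTAP−/−, treated 24 h after plating with 10-point 3-fold compound dilutions including DMSO only, then grown 4 days at 37 °C/5% CO2. Cell Titer Glo ATP luminescence, blank-subtracted and normalised to 0.2% DMSO control, gave percent change in proliferation versus log concentration.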
For orientation: Cellular ATP, detected with luciferase, serves as a proxy for viable cell number.

Test [1] deals with SAM in HCT116 human colon carcinoma cell line engineered to delete the MTAP gene (MTAP −/−). Nature of the test: Cellular assay of target engagement (SAM) by LC-MS/MS. It is filed as cell-based. Particulars: Homo sapiens, HCT-116, 72 h, IC50 score, read-out: Cell 72 h SAM Inhibition (MTAP −/−; Example 276). A digest of the protocol:
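MTAP-deleted HCT116 cells were dosed 24 h after plating with a 10-point 3-fold compound series in DMSO, then incubated 72 h at 37 °C/5% CO2. Cells were extracted in cold 80% methanol with acetic acid and d3-SAM internal standard. SAM was quantified by LC-MS/MS MRM (m/z 399.2→250.1).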

The test system of another test is HCT116 MTAP+/+. Nature of the test: Inhibition of cellular proliferation (Cell Titer Glo), HCT116 MTAP+/+. In kind it is cell-based, human. Particulars: Homo sapiens, HCT-116, 96 h, 4 days, IC50 score, read-out: 4 Day Relative Growth Inhibition (MTAP +/+; Example 277). Put shortly:
as §1

pIC50: −log10 of the molar value. Where only a bound is given, the exact number is not on record here.

T1 sequence (P31153 whole entry): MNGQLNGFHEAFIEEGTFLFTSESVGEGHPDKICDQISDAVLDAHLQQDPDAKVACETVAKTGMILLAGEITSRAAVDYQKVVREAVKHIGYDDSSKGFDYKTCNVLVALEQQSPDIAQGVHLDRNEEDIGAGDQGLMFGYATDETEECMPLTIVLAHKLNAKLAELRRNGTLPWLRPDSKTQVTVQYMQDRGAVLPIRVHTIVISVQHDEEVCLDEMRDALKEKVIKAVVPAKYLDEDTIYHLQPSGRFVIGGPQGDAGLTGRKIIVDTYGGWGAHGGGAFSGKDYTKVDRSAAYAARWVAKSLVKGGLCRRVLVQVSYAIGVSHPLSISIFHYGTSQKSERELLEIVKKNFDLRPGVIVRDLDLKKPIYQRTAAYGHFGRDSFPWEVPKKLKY

Turning to `O=c1c(-c2ccc(-c3cc[nH]n3)cc2)c2nc(NCC(F)(F)F)ncc2cn1-c1ccc2ncccc2c1` [Example 203, 8-(4-(H-pyrazol-3-yl)phenyl)-6-(quinolin-6-yl)-2-((2,2,2-trifluoroethyl)amino)pyrido[4,3-d]pyrimidin-7(6H)-one], the pIC50 at MAT2A homodimer is above 7.00; with HCT116 MTAP−/−, below 5.00; in test [1], 6.00 to 7.00; in the test on HCT116 MTAP+/+, below 5.00.

Turning to `COc1ccc(-n2cc3cnc(NCC(F)(F)F)nc3c(-c3ccc(CCO)cc3)c2=O)cc1` [Example 205, 8-(4-(2-hydroxyethyl)phenyl)-6-(4-methoxyphenyl)-2-(2,2,2-trifluoroethylamino)pyrido[4,3-d]pyrimidin-7(6H)-one], the pIC50 at MAT2A homodimer is above 7.00; in the test with HCT116 MTAP−/−, 5.00 to 7.00; in test [1], above 7.00; in the test with HCT116 MTAP+/+, below 5.00.

On to `COc1ccc(-n2cc3cnc(NCC(F)(F)F)nc3c(-c3ccc(-c4nc[nH]n4)cc3)c2=O)cc1` [Example 206, 8-(4-(H-1,2,4-triazol-3-yl)phenyl)-6-(4-methoxyphenyl)-2-(2,2,2-trifluoroethylamino)pyrido[4,3-d]pyrimidin-7(6H)-one], for which the pIC50 is above 7.00 at MAT2A homodimer, 5.00 to 7.00 in the test on HCT116 MTAP−/−, 6.00 to 7.00 in test [1] and 5.00 to 7.00 in the test with HCT116 MTAP+/+.

On to `Cn1cc2cc(-n3cc4ccc(SCC(F)(F)F)nc4c(-c4ccc(Cl)cc4)c3=O)ccc2n1` [Example 209, 8-(4-chlorophenyl)-6-(2-methyl-2H-indazol-5-yl)-2-((2,2,2-trifluoroethyl)thio)-1,6-naphthyridin-7(6H)-one], for which the pIC50 at MAT2A homodimer is above 7.00; in the test with HCT116 MTAP−/−, above 7.00; in test [1] it was above 7.00; with HCT116 MTAP+/+ it was below 5.00.

For the compound `Cn1cc2cc(-n3cc4ccc(OC5CC5)nc4c(-c4ccc(Cl)cc4)c3=O)ccc2n1` [Example 210, 8-(4-chlorophenyl)-2-cyclopropoxy-6-(2-methyl-2H-indazol-5-yl)-1,6-naphthyridin-7(6H)-one], the pIC50 on MAT2A homodimer was above 7.00; in the test with HCT116 MTAP−/− it was above 7.00; in test [1] it was above 7.00; in the test with HCT116 MTAP+/+ it was below 5.00.

As for `Cn1cc2cc(-n3cc4ccc(NCC(F)(F)F)nc4c(-c4ccc(OC(F)(F)F)cc4)c3=O)ccc2n1` [Example 211, 6-(2-methyl-2H-indazol-5-yl)-2-((2,2,2-trifluoroethyl)amino)-8-(4-(trifluoromethoxy)phenyl)-1,6-naphthyridin-7(6H)-one], the pIC50 at MAT2A homodimer is above 7.00; with HCT116 MTAP−/−, above 7.00; in test [1] it was above 7.00; in the test with HCT116 MTAP+/+ it was below 5.00.

For the compound `Cn1cc2cc(-n3cc4ccc(NCC(F)(F)F)nc4c(-c4ccc(C5CC5)nc4)c3=O)ccc2n1` [Example 212, 8-(6-cyclopropylpyridin-3-yl)-6-(2-methyl-2H-indazol-5-yl)-2-((2,2,2-trifluoroethyl)amino)-1,6-naphthyridin-7(6H)-one], the pIC50 is above 7.00 on MAT2A homodimer, above 7.00 in the test with HCT116 MTAP−/−, above 7.00 in test [1] and below 5.00 in the test on HCT116 MTAP+/+.

As for `Cn1cc2cc(-n3cc4ccc(NCC(F)(F)F)nc4c(-c4ccc(C(F)(F)F)cc4)c3=O)ccc2n1` [Example 213, 6-(2-methyl-2H-indazol-5-yl)-2-((2,2,2-trifluoroethyl)amino)-8-(4-(trifluoromethyl)phenyl)-1,6-naphthyridin-7(6H)-one], the pIC50 was above 7.00 at MAT2A homodimer, above 7.00 in the test on HCT116 MTAP−/−, above 7.00 in test [1] and below 5.00 in the test on HCT116 MTAP+/+.

With `CCOc1ccc2cn(-c3ccc4nn(C)cc4c3)c(=O)c(-c3ccc(C(F)(F)F)cc3)c2n1` [Example 215, 2-ethoxy-6-(2-methyl-2H-indazol-5-yl)-8-(4-(trifluoromethyl)phenyl)-1,6-naphthyridin-7(6H)-one], the pIC50 at MAT2A homodimer was above 7.00; in the test with HCT116 MTAP−/−, above 7.00; in test [1] it was above 7.00; in the test on HCT116 MTAP+/+, 5.00 to 7.00.

In the case of `CCOc1ccc2cn(-c3ccc4nn(C)cc4c3)c(=O)c(-c3ccc(C(F)F)nc3)c2n1` [Example 216, 8-(6-(difluoromethyl)pyridin-3-yl)-2-ethoxy-6-(2-methyl-2H-indazol-5-yl)-1,6-naphthyridin-7(6H)-one], the pIC50 was above 7.00 at MAT2A homodimer, above 7.00 with HCT116 MTAP−/−, above 7.00 in test [1] and 5.00 to 7.00 in the test with HCT116 MTAP+/+.

As for `CCOc1ccc2cn(-c3ccc4nn(C)cc4c3)c(=O)c(-c3ccc(OC(F)(F)F)cc3)c2n1` [Example 217, 2-ethoxy-6-(2-methyl-2H-indazol-5-yl)-8-(4-(trifluoromethoxy)phenyl)-1,6-naphthyridin-7(6H)-one], the pIC50 on MAT2A homodimer is above 7.00; in the test with HCT116 MTAP−/− it was 5.00 to 7.00; in test [1], above 7.00; with HCT116 MTAP+/+, below 5.00.

For the compound `CCOc1ccc2cn(-c3ccc4nn(C)cc4c3)c(=O)c(-c3ccc(OC(F)F)nc3)c2n1` [Example 218, 8-(6-(difluoromethoxy)pyridin-3-yl)-2-ethoxy-6-(2-methyl-2H-indazol-5-yl)-1,6-naphthyridin-7(6H)-one], the pIC50 on MAT2A homodimer is above 7.00; in the test with HCT116 MTAP−/− it was above 7.00; in test [1] it was above 7.00; with HCT116 MTAP+/+ it was 5.00 to 7.00.

As to `CCOc1ccc2cn(-c3ccc4nn(C)cc4c3)c(=O)c(-c3ccc(C)nc3)c2n1` [Example 219, 2-ethoxy-6-(2-methyl-2H-indazol-5-yl)-8-(6-methylpyridin-3-yl)-1,6-naphthyridin-7(6H)-one], the pIC50 on MAT2A homodimer was above 7.00; in the test on HCT116 MTAP−/−, above 7.00; in test [1] it was above 7.00; in the test on HCT116 MTAP+/+, 5.00 to 7.00.

Take `CCOc1ccc2cn(-c3ccc4nn(C)cc4c3)c(=O)c(-c3ccc(C(F)(F)F)nc3)c2n1` [Example 220, 2-ethoxy-6-(2-methyl-2H-indazol-5-yl)-8-(6-(trifluoromethyl)pyridin-3-yl)-1,6-naphthyridin-7(6H)-one]: the pIC50 was above 7.00 on MAT2A homodimer, above 7.00 with HCT116 MTAP−/−, above 7.00 in test [1] and 5.00 to 7.00 in the test on HCT116 MTAP+/+.

Consider `CCOc1ccc2cn(-c3ccc4nn(C)cc4c3)c(=O)c(-c3ccc(C4CC4)nc3)c2n1` [Example 221, 8-(6-cyclopropylpyridin-3-yl)-2-ethoxy-6-(2-methyl-2H-indazol-5-yl)-1,6-naphthyridin-7(6H)-one], for which the pIC50 at MAT2A homodimer was above 7.00; in the test with HCT116 MTAP−/−, 5.00 to 7.00; in test [1] it was above 7.00; in the test with HCT116 MTAP+/+ it was below 5.00.

`CCOc1ccc2cn(-c3ccc4nn(C)cc4c3)c(=O)c(-c3ccc(-c4nc[nH]n4)cc3)c2n1` [Example 222, 8-(4-(1H-1,2,4-triazol-3-yl)phenyl)-2-ethoxy-6-(2-methyl-2H-indazol-5-yl)-1,6-naphthyridin-7(6H)-one]: the pIC50 on MAT2A homodimer is above 7.00; in the test with HCT116 MTAP−/− it was 5.00 to 7.00; in test [1], above 7.00; with HCT116 MTAP+/+, below 5.00.

As to `CCOc1ccc2cn(-c3ccc4nn(C)cc4c3)c(=O)c(-c3ccc(-c4cc[nH]n4)cc3)c2n1` [Example 223, 8-(4-(1H-pyrazol-3-yl)phenyl)-2-ethoxy-6-(2-methyl-2H-indazol-5-yl)-1,6-naphthyridin-7(6H)-one], the pIC50 is above 7.00 at MAT2A homodimer, 5.00 to 7.00 with HCT116 MTAP−/−, 6.00 to 7.00 in test [1] and below 5.00 with HCT116 MTAP+/+.
